Data: patent US10696675B2, “Imidazopyridopyrimidine derivative compound and use thereof” (HANMI PHARMACEUTICAL CO., LTD., priority 2016, dated 2020)
pIC50: −log10 of the molar value.

Assays:
[1] = target: FGFR4 (Homo sapiens, UniProt P22455); assay: Activity inhibition for FGFR4 kinase (Z′-LYTE biochemical assay, Invitrogen SelectScreen); details: ATP concentration based on Km
Method: (§1) For the synthesized compounds, inhibitory activity for FGFR1, 2, 3, 4 kinase was measured. Activity measurement was carried out by requesting to SelectScreen® Biochemical Kinase Profiling Service of Invitrogen. A Z′-LYTE® biochemical assay method was used, and the ATP concentration was set based on the Km value.

[2] = target: FGFR1 (Homo sapiens, UniProt P11362); assay: Activity inhibition for FGFR1 kinase (Z′-LYTE biochemical assay, Invitrogen SelectScreen); details: ATP concentration based on Km
Chain of FGFR1 (P11362 22-822): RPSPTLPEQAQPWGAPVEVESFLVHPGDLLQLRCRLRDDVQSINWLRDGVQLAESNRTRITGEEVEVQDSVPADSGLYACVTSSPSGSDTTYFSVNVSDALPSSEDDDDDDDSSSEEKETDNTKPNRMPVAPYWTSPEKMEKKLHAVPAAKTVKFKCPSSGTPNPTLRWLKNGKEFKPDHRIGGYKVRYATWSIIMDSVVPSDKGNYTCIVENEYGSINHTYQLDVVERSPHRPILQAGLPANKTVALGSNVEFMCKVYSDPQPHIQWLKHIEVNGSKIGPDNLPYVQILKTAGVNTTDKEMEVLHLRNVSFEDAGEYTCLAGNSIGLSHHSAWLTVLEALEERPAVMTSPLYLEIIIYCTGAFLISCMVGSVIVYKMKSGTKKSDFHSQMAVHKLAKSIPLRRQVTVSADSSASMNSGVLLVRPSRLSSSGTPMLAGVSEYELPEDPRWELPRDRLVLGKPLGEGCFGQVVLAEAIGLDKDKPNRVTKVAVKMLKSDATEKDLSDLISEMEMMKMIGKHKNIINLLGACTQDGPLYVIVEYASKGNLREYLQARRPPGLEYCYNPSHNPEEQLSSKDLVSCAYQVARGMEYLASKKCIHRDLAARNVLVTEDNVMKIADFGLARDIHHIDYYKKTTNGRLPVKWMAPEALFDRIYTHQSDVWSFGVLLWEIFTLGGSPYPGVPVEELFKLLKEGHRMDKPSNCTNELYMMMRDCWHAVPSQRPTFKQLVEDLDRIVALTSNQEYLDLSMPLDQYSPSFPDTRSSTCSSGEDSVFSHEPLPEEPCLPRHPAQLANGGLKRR
Method: as §1

[3] = system: HUH7 cells; assay: Proliferation inhibitory effect for HUH7 cells (SRB assay); format: cell-based; details: Homo sapiens, Huh-7, 72 hours, GI50, read-out: IC50 HUH7 Cell Line
Method: Test Example 2: Measuring Inhibitory Effect of FGFR Inhibitor Using Cell Line
The test was carried out for identifying a proliferation inhibitory effect of the compound of the present invention for HUH7 cells. HUH7 cell lines were counted and 5.0×10^3 cells were inoculated per well in a 96 well plate. After the innoculation, the cells were cultured for 24 hours in a 37 □ and 5% carbon dioxide (CO2) incubator. On the next day, the synthesized compounds were each diluted and prepared. The diluted compounds were introduced to the cell lines inoculated the previous day by concentrations, and reacted for 72 hours in a 37 □ and 5% carbon dioxide (CO2) incubator. However, to a positive control to which the compound was not added, 0.1% dimethyl sulfoxide (DMSO) diluted with a medium was introduced. To a negative control plate, a trichloroacetic acid (TCA) solution was introduced, and fixed at 4 □. After reacting for 72 hours, the medium including the compound was removed, a TCA solution was added thereto, and the cells were fixed for 30 minutes to 60 minutes at 4 □. The TCA solution was discarded, the plate was washed off with distilled water and then dried in the air. A 0.4% sulforhodamin B (SRB) solution was added to the plate and dyed for 10 minutes at room temperature. The plate was washed off with tap water including a 1% acetic acid solution, and then dried in the air. A 10 mM Trizma base solution was added to dissolve the solid SRB. Using a microplate reader, optical density (O.D. value) was measured at 540 nm. A GI50 value of each of the compounds was calculated using GraphPad Prism V6.0 Software.

Chain of FGFR4 (P22455 22-802): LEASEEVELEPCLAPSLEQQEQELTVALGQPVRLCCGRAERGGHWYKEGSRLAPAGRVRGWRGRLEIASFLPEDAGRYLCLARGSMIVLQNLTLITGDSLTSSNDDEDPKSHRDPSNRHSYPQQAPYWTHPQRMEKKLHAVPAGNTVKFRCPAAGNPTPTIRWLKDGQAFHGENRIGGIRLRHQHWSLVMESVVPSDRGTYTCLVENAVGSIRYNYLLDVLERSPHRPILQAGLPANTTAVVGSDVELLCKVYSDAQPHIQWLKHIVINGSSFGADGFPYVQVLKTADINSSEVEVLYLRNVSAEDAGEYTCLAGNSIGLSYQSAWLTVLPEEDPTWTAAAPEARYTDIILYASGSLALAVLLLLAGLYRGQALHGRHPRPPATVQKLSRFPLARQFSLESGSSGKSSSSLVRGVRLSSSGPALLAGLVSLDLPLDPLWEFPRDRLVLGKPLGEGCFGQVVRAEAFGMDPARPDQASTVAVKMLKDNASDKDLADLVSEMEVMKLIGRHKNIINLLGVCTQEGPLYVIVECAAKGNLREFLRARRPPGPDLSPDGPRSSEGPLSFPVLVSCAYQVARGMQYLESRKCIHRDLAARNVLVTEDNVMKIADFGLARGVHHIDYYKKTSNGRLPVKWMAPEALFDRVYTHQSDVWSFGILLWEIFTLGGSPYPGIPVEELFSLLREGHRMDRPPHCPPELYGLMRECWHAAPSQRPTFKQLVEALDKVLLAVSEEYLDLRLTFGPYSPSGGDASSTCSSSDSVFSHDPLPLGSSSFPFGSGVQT

Row | Compound | pIC50 [1] | pIC50 [2] | pIC50 [3]
1 | C=CC(=O)Nc1cc(N2CCNCC2)ccc1Nc1ncc2cc(-c3c(Cl)c(OC)cc(OC)c3Cl)c3nccn3c2n1 [compound 39] | > 7.30 | > 7.30 | > 7.30
2 | C=CC(=O)Nc1cc(N2CCOCC2)cc(C)c1Nc1ncc2cc(-c3c(Cl)c(OC)cc(OC)c3Cl)c3nccn3c2n1 [compound 63] | > 7.30 | 6.30 to 7.30 | 6.30 to 7.30
3 | C=CC(=O)Nc1cccc(F)c1Nc1ncc2cc(-c3c(Cl)c(OC)cc(OC)c3Cl)c3nccn3c2n1 [compound 10] | > 7.30 | 6.30 to 7.30 | > 7.30
4 | C=CC(=O)Nc1cccc(C)c1Nc1ncc2cc(-c3c(Cl)c(OC)cc(OC)c3Cl)c3nccn3c2n1 [compound 9] | > 7.30 | < 6.30 | 6.30 to 7.30
5 | C=CC(=O)Nc1cc(N2CCOCC2)ccc1Nc1cc2c(cn1)cc(-c1c(Cl)c(OC)cc(OC)c1Cl)c1nccn12 [Synthesis Example 83, N-(2-((4-(2,6-dichloro-3,5-dimethoxyphenyl)imidazo[1,2-a][1,6]naphthyridin-8-yl)amino)-5-morpholinophenyl)acrylamide] | > 7.30 | > 7.30 | > 7.30
6 | C=CC(=O)Nc1cc(N2CCOCC2)c(C)cc1Nc1ncc2cc(-c3c(Cl)c(OC)cc(OC)c3Cl)c3nccn3c2n1 [compound 61] | > 7.30 | > 7.30 | > 7.30
7 | C=CC(=O)Nc1cc(C)cc(C)c1Nc1ncc2cc(-c3c(Cl)c(OC)cc(OC)c3Cl)c3nccn3c2n1 [compound 58] | 6.30 to 7.30 | < 6.30 | 6.30 to 7.30
8 | C=CC(=O)Nc1cc(N2CCN(CC)CC2)ccc1Nc1cc2c(cn1)cc(-c1c(Cl)c(OC)cc(OC)c1Cl)c1nccn12 [compound 85] | > 7.30 | > 7.30 | > 7.30
9 | C=CC(=O)Nc1cc(OCCOC)ccc1Nc1ncc2cc(-c3c(Cl)c(OC)cc(OC)c3Cl)c3nccn3c2n1 [compound 29] | > 7.30 | > 7.30 | > 7.30
10 | C=CC(=O)Nc1cc(N2C[C@@H](C)O[C@@H](C)C2)ccc1Nc1ncc2cc(-c3c(Cl)c(OC)cc(OC)c3Cl)c3nccn3c2n1 [compound 38] | > 7.30 | > 7.30 | > 7.30
